This is an account of results in ChEMBL document CHEMBL5143592, “Angiogenesis-Inhibitory Piperidine Alkaloids from the Leaves of Microcos paniculata” (J Nat Prod, 2022).

Each structure is given as a SMILES string.

In data set [1] the test system is HUVEC. The data set is described as follows: Anti-angiogenesis activity against HUVEC cells assessed as inhibition of tube formation at 2.5 to 20 uM measured after 3 hrs by fluorescence microscopic analysis. The format is functional, cell-based. As to conditions: Homo sapiens, dose 2.5-20 µM, DDE = dose-dependent effect.
Data set [2] in a line: Cytotoxicity against HUVEC cells assessed as cell viability incubated for 24 hrs by MTT assay. As to conditions: human, read-out: Activity. The format is toxicity, cell-based. Background: Tetrazolium dyes change colour on reduction, which living cells bring about.

Regarding `CCCC[C@@H](O)[C@H](O)/C=C/C=C/[C@@H]1CC[C@@H](O)[C@H](C)N1`, in data set [1], the Activity result was “Dde”. For the same compound, in data set [2], the viability at 24 h is at least 90%.
